Reference: patent US10093642B2, “Multitarget hedgehog pathway inhibitors and uses thereof” (UNIVERSITA' DEGLI STUDI DI SIENA, priority 2013, dated 2018)

Tests used:
Wnt/Bcatenin = experiment: Selectivity: unrelated signal transduction pathway Wnt/Bcatenin; assay type: cell-based
MEF-SuFu−/− cells = experiment: Gli1 mRNA (quantitative RT-PCR) in MEF-SuFu−/− cells; assay type: cell-based, mouse; conditions: different concentrations, 48 h
Experimental: FIG. 9. Confluent MEF-SuFu^−/− cells were treated with DMSO (0.5%, vehicle), GANT61 (10 μM, as positive control) or different concentrations of Glabrescione B for 48 h. Gli1 mRNA levels were determined by quantitative RT-PCR, normalizing to HPRT expression. Error bars indicate SD.
To analyze the antagonist properties of Glabrescione B under more physiological conditions, the inventors used MEF-Ptch^−/− cells, embryo fibroblasts derived from Ptch^−/− mouse, in which the activation of Hh signaling is consequence of Ptch1 deletion. Since Patched acts as upstream repressor of SMO, inhibition of the Hedgehog pathway from Patched is prevented and the Hedgehog pathway is constitutively activated in this cell lines, which turned out to be a reliable cellular model for studying the effect of Hedgehog inhibitors. […]
To further elucidate the concept of downstream pathway inhibition by Glabrescione B, the inventors used MEF-SuFu^−/− cells (a kind gift by R. Toftgard, Karolinska Institutet, Sweden, Svärd, J. et al, 2006), in which the downstream Hh pathway activation is consequence of SuFu genetic ablation. Confluent cells were treated with Glabrescione B at the amount indicated in the FIG. 9 and Gli1 expression levels were determined by quantitative RT-PCR as previously described. […]

[1] = system: Cancer stem cells (CSCs) isolated from murine Ptch+/− MB; experiment: Gli1 mRNA in MB cancer stem cells (neurospheres); assay type: cell-based; conditions: 48 h, quantitative RT-PCR
Experimental: FIG. 13. […] Gli1 mRNA levels were determined by quantitative RT-PCR using HPRT as normalizer.
Hh activity preferentially associates to stemness features. For this reason, the Hh pathway antagonist Glabrescione B has also been investigated for its ability to modulate the behavior of MB cancer stem cells (CSCs).
It has been described that Hh activity preferentially associates to stemness features. In order to determine whether Glabrescione B also modulates the behavior of MB cancer stem cells (CSCs), neurospheres isolated from murine Ptch^+/− MB were treated with Glabrescione B for 48 h and the levels of Gli1 were determined by quantitative RT-PCR. Murine MBs were isolated from Ptch1^+/− mice (Goodrich, Milenkivic et al. 1997). Tissues were collected in HBSS supplemented with 0.5% glucose and penicillin-streptomycin, grossly triturated with serological pipette and treated with DNAse I to a final concentration of 0.04% for 20 min. Finally, cells aggregates were mechanically dissociated using pipettes of decreasing bore size to obtain a single cell suspension. […]

human MB D283 cells = experiment: Proliferation (BrdU), viability (MTS) and cell death (Trypan Blue) of MB D283 cells; assay type: cell-based; conditions: 48 h
Experimental: FIG. 11. (A) Human MB D283 cells were treated with different concentrations of Glabrescione B as indicated for 48 h. Inhibition of cell proliferation was measured as percentage of BrdU incorporation in comparison to DMSO (0.5%, vehicle) treated sample. (B) Human MB D283 cells were treated for 48 h with increasing concentrations of Glabrescione B as indicated. After 48 h, CellTiter 96® Aqueous One Solution Reagent was added to each well according to the manufacturer's instructions. After one hour in culture the cell viability (expressed in % viability) was determined by measuring the absorbance at 490 nm comparing treatment with DMSO (0.5%, vehicle) control.
FIG. 12. […]
A biological assay was performed in cerebellar neural progenitors cells obtained from 4-days-old mice, when they are actively proliferating under Sonic Hedgehog (Shh) stimulus. As expected, treatment of these cells with Shh increased the proliferation rate, as evaluated by BrdU-incorporation assay. […]
More important, Glabrescione B was able to promote cell death of D283 MB cells, as reported by Trypan Blue count assay (FIG. 12). […] Cell death was measured by Trypan Blue (Sigma, cat. #T8154) exclusion counting at least 200 cells, in duplicate samples. All described assays were evaluated at 48 h after treatment.

Gli1-GST fusion protein = experiment: NMR relaxation speed of Glabrescione B protons in presence of Gli1-GST; assay type: binding; conditions: 0.412 mM
Experimental: A sample of Glabrescione B 0.412 mM in DMSO-d6 was prepared and added to 20 μL of a solution of Gli1-GST (Glutathione S-transferase) fusion protein at 5 μg/μL, providing a molar ratio of Glabrescione B/Gli1-GST of 150:1. […] In experimental conditions, Glabrescione B protons experiencing the most significant perturbation of the relaxation speed, due to the presence of Gli1-GST, belong to the ring A of the isoflavone nucleus, namely aromatic protons H1, H3 and those belonging to methoxyl groups 2′ and 4′.

GST = GST (Schistosoma japonicum, UniProt P08515); experiment: NMR relaxation speed of Glabrescione B protons in presence of GST alone; assay type: binding; conditions: 0.412 mM
[2] = NMR monitoring of direct interaction with Zn2+; assay type: binding

Sequence of GST (P08515 whole entry): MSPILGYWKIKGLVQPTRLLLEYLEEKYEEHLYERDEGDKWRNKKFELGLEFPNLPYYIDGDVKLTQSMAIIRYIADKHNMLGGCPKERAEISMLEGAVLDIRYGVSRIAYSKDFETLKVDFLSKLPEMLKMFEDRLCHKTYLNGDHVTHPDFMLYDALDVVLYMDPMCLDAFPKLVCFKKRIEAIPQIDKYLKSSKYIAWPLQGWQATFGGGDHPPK

SMILES: COc1cc(OC)c2c(=O)c(-c3ccc(OCC=C(C)C)c(OCC=C(C)C)c3)coc2c1 [Glabrescione B, 3-(3′,4′-bis(3-methylbut-2-enyloxy)phenyl)-5,7-dimethoxy-4H-chromen-4-one]
- inhibition at 30 µM (Wnt/Bcatenin): 0%
- Gli1 expression levels (quantitative RT-PCR) (MEF-SuFu−/− cells): significant reduction of the high expression levels of Gli1
- Gli1 mRNA levels in MB CSCs [1]: reduction of Gli1 mRNA levels
- percentage of cell death (Trypan Blue) (human MB D283 cells): increase of the percentage of cell death, in a dose-dependent manner
- growth rate inhibition (human MB D283 cells; dose range of 1-50 μM, MTS and BrdU incorporation): 70-95%
- Normalized relaxation speed ΔR/Rf, GlaB:Gli1-GST 1:150 (Gli1-GST fusion protein; proton 1): 0.341
- Normalized relaxation speed ΔR/Rf, GlaB:Gli1-GST 1:150 (Gli1-GST fusion protein; proton 2′): 0.267
- Normalized relaxation speed ΔR/Rf, GlaB:Gli1-GST 1:150 (Gli1-GST fusion protein; proton 3): 0.206
- Normalized relaxation speed ΔR/Rf, GlaB:Gli1-GST 1:150 (Gli1-GST fusion protein; proton 4′): 0.482
- Normalized relaxation speed ΔR/Rf, GlaB:Gli1-GST 1:150 (Gli1-GST fusion protein; proton 8): 0.028
- Normalized relaxation speed ΔR/Rf, GlaB:Gli1-GST 1:150 (Gli1-GST fusion protein; proton 11): 0.286
- Normalized relaxation speed ΔR/Rf, GlaB:Gli1-GST 1:150 (Gli1-GST fusion protein; proton 12): 0
- Normalized relaxation speed ΔR/Rf, GlaB:Gli1-GST 1:150 (Gli1-GST fusion protein; proton 15): 0.329
- Normalized relaxation speed ΔR/Rf, GlaB:Gli1-GST 1:150 (Gli1-GST fusion protein; proton 19): 0
- Normalized relaxation speed ΔR/Rf, GlaB:GST 1:150 (GST; proton 1): 0.024
- Normalized relaxation speed ΔR/Rf, GlaB:GST 1:150 (GST; proton 2′): 0.058
- Normalized relaxation speed ΔR/Rf, GlaB:GST 1:150 (GST; proton 3): 0.100
- Normalized relaxation speed ΔR/Rf, GlaB:GST 1:150 (GST; proton 4′): 0
- Normalized relaxation speed ΔR/Rf, GlaB:GST 1:150 (GST; proton 8): 0
- Normalized relaxation speed ΔR/Rf, GlaB:GST 1:150 (GST; proton 12): 0.034
- Normalized relaxation speed ΔR/Rf, GlaB:GST 1:150 (GST; proton 15): 0.138
- Normalized relaxation speed ΔR/Rf, GlaB:GST 1:150 (GST; proton 19): 0
- binding to Zn2+ (NMR) [2]: not capable of binding to the metal ions
